Values after ≈ are worked out from the molar mass of the structure shown.
Experiments:
Aspergillus parasiticus = assay: Antifungal activity against Aspergillus parasiticus NRRL 465 after 72 hrs by broth microdilution method; type: functional; details: NRRL 465, 72 h
Salmonella typhimurium [1] = assay: Genotoxicity in Salmonella typhimurium TA1535/pSK1002 assessed as growth factor at 0.156 mg/ml after 2 hrs by umuC assay in presence of Sprague-Dawley rat liver S9 fraction; type: toxicity, organism-based; details: salmonella enterica subsp. enterica serovar typhimurium, s9, 2 h
Salmonella typhimurium [2] = assay: Genotoxicity in Salmonella typhimurium TA1535/pSK1002 assessed as growth factor at 1.25 mg/ml after 2 hrs by umuC assay in presence of Sprague-Dawley rat liver S9 fraction; type: toxicity, organism-based; details: salmonella enterica subsp. enterica serovar typhimurium, s9, 2 h
Salmonella typhimurium [3] = assay: Genotoxicity in Salmonella typhimurium TA1535/pSK1002 assessed as growth factor at 2.5 mg/ml after 2 hrs by umuC assay in presence of Sprague-Dawley rat liver S9 fraction; type: toxicity, organism-based; details: salmonella enterica subsp. enterica serovar typhimurium, s9, 2 h
Salmonella typhimurium [4] = assay: Genotoxicity in Salmonella typhimurium TA1535/pSK1002 assessed as growth factor at 5 mg/ml after 2 hrs by umuC assay in presence of Sprague-Dawley rat liver S9 fraction; type: toxicity, organism-based; details: salmonella enterica subsp. enterica serovar typhimurium, s9, 2 h
Salmonella typhimurium [5] = assay: Genotoxicity in Salmonella typhimurium TA1535/pSK1002 assessed as growth factor at 1.25 mg/ml after 2 hrs by umuC assay in absence of Sprague-Dawley rat liver S9 fraction; type: toxicity, organism-based; details: salmonella enterica subsp. enterica serovar typhimurium
Salmonella typhimurium [6] = assay: Genotoxicity in Salmonella typhimurium TA1535/pSK1002 assessed as growth factor at 5 mg/ml after 2 hrs by umuC assay in absence of Sprague-Dawley rat liver S9 fraction; type: toxicity, organism-based; details: salmonella enterica subsp. enterica serovar typhimurium
[7] = Genotoxicity in Salmonella typhimurium TA1535/pSK1002 assessed as induction ratio at 1.25 mg/ml after 2 hrs by umuC assay in presence of Sprague-Dawley rat liver S9 fraction; type: toxicity, organism-based; details: salmonella enterica subsp. enterica serovar typhimurium
[8] = Genotoxicity in Salmonella typhimurium TA1535/pSK1002 assessed as induction ratio at 0.156 mg/ml after 2 hrs by umuC assay in absence of Sprague-Dawley rat liver S9 fraction; type: toxicity, organism-based; details: salmonella enterica subsp. enterica serovar typhimurium
[9] = Genotoxicity in Salmonella typhimurium TA1535/pSK1002 assessed as induction ratio at 0.3125 mg/ml after 2 hrs by umuC assay in absence of Sprague-Dawley rat liver S9 fraction; type: toxicity, organism-based; details: salmonella enterica subsp. enterica serovar typhimurium
[10] = Genotoxicity in Salmonella typhimurium TA1535/pSK1002 assessed as induction ratio at 0.625 mg/ml after 2 hrs by umuC assay in absence of Sprague-Dawley rat liver S9 fraction; type: toxicity, organism-based; details: salmonella enterica subsp. enterica serovar typhimurium
[11] = Genotoxicity in Salmonella typhimurium TA1535/pSK1002 assessed as induction ratio at 1.25 mg/ml after 2 hrs by umuC assay in absence of Sprague-Dawley rat liver S9 fraction; type: toxicity, organism-based; details: salmonella enterica subsp. enterica serovar typhimurium
Salmonella typhimurium [12] = assay: Mutagenicity in Salmonella typhimurium TA98 at 0.156 mg/ml after 48 hrs by Ames MPF assay in presence of Sprague-Dawley rat liver S9 fraction; type: toxicity, organism-based; details: salmonella enterica subsp. enterica serovar typhimurium, s9, 48 h
Salmonella typhimurium [13] = assay: Mutagenicity in Salmonella typhimurium TA98 at 0.3125 mg/ml after 48 hrs by Ames MPF assay in presence of Sprague-Dawley rat liver S9 fraction; type: toxicity, organism-based; details: salmonella enterica subsp. enterica serovar typhimurium, s9, 48 h
Salmonella typhimurium [14] = assay: Mutagenicity in Salmonella typhimurium TA98 at 0.625 mg/ml after 48 hrs by Ames MPF assay in presence of Sprague-Dawley rat liver S9 fraction; type: toxicity, organism-based; details: salmonella enterica subsp. enterica serovar typhimurium, s9, 48 h
Salmonella typhimurium [15] = assay: Mutagenicity in Salmonella typhimurium TA98 at 1.25 mg/ml after 48 hrs by Ames MPF assay in presence of Sprague-Dawley rat liver S9 fraction; type: toxicity, organism-based; details: salmonella enterica subsp. enterica serovar typhimurium, s9, 48 h
Salmonella typhimurium [16] = assay: Mutagenicity in Salmonella typhimurium TA98 at 2.5 mg/ml after 48 hrs by Ames MPF assay in presence of Sprague-Dawley rat liver S9 fraction; type: toxicity, organism-based; details: salmonella enterica subsp. enterica serovar typhimurium, s9, 48 h
Salmonella typhimurium [17] = assay: Mutagenicity in Salmonella typhimurium TA98 at 5 mg/ml after 48 hrs by Ames MPF assay in presence of Sprague-Dawley rat liver S9 fraction; type: toxicity, organism-based; details: salmonella enterica subsp. enterica serovar typhimurium, s9, 48 h
Salmonella typhimurium [18] = assay: Mutagenicity in Salmonella typhimurium TA98 at 0.156 mg/ml after 48 hrs by Ames MPF assay in absence of Sprague-Dawley rat liver S9 fraction; type: toxicity, organism-based; details: salmonella enterica subsp. enterica serovar typhimurium
Salmonella typhimurium [19] = assay: Mutagenicity in Salmonella typhimurium TA98 at 0.3125 mg/ml after 48 hrs by Ames MPF assay in absence of Sprague-Dawley rat liver S9 fraction; type: toxicity, organism-based; details: salmonella enterica subsp. enterica serovar typhimurium
Salmonella typhimurium [20] = assay: Mutagenicity in Salmonella typhimurium TA98 at 0.625 mg/ml after 48 hrs by Ames MPF assay in absence of Sprague-Dawley rat liver S9 fraction; type: toxicity, organism-based; details: salmonella enterica subsp. enterica serovar typhimurium
Salmonella typhimurium [21] = assay: Mutagenicity in Salmonella typhimurium TA98 at 1.25 mg/ml after 48 hrs by Ames MPF assay in absence of Sprague-Dawley rat liver S9 fraction; type: toxicity, organism-based; details: salmonella enterica subsp. enterica serovar typhimurium
Candida albicans = assay: Antifungal activity against Candida albicans ATCC-90028 after 48 hrs by broth microdilution method; type: functional; details: ATCC-90028, 48 h
Candida tropicalis = assay: Antifungal activity against Candida tropicalis NRLL Y-12968 after 48 hrs by broth microdilution method; type: functional; details: NRLL Y-12968, 48 h
Aspergillus niger = assay: Antifungal activity against Aspergillus niger ATCC-1094 after 72 hrs by broth microdilution method; type: functional; details: ATCC-1094, 72 h
Salmonella typhimurium [22] = assay: Genotoxicity in Salmonella typhimurium TA1535/pSK1002 assessed as growth factor at 0.156 mg/ml after 2 hrs by umuC assay in absence of Sprague-Dawley rat liver S9 fraction; type: toxicity, organism-based; details: salmonella enterica subsp. enterica serovar typhimurium
Salmonella typhimurium [23] = assay: Genotoxicity in Salmonella typhimurium TA1535/pSK1002 assessed as growth factor at 0.3125 mg/ml after 2 hrs by umuC assay in absence of Sprague-Dawley rat liver S9 fraction; type: toxicity, organism-based; details: salmonella enterica subsp. enterica serovar typhimurium
Salmonella typhimurium [24] = assay: Genotoxicity in Salmonella typhimurium TA1535/pSK1002 assessed as growth factor at 0.625 mg/ml after 2 hrs by umuC assay in absence of Sprague-Dawley rat liver S9 fraction; type: toxicity, organism-based; details: salmonella enterica subsp. enterica serovar typhimurium
Salmonella typhimurium [25] = assay: Mutagenicity in Salmonella typhimurium TA98 at 2.5 mg/ml after 48 hrs by Ames MPF assay in absence of Sprague-Dawley rat liver S9 fraction; type: toxicity, organism-based; details: salmonella enterica subsp. enterica serovar typhimurium
Salmonella typhimurium [26] = assay: Mutagenicity in Salmonella typhimurium TA100 at 1.25 mg/ml after 48 hrs by Ames MPF assay in presence of Sprague-Dawley rat liver S9 fraction; type: toxicity, organism-based; details: salmonella enterica subsp. enterica serovar typhimurium, s9, 48 h
Salmonella typhimurium [27] = assay: Mutagenicity in Salmonella typhimurium TA100 at 2.5 mg/ml after 48 hrs by Ames MPF assay in presence of Sprague-Dawley rat liver S9 fraction; type: toxicity, organism-based; details: salmonella enterica subsp. enterica serovar typhimurium, s9, 48 h
Salmonella typhimurium [28] = assay: Mutagenicity in Salmonella typhimurium TA100 at 0.3125 mg/ml after 48 hrs by Ames MPF assay in absence of Sprague-Dawley rat liver S9 fraction; type: toxicity, organism-based; details: salmonella enterica subsp. enterica serovar typhimurium
Salmonella typhimurium [29] = assay: Mutagenicity in Salmonella typhimurium TA100 at 0.625 mg/ml after 48 hrs by Ames MPF assay in absence of Sprague-Dawley rat liver S9 fraction; type: toxicity, organism-based; details: salmonella enterica subsp. enterica serovar typhimurium
Salmonella typhimurium [30] = assay: Mutagenicity in Salmonella typhimurium TA100 at 2.5 mg/ml after 48 hrs by Ames MPF assay in absence of Sprague-Dawley rat liver S9 fraction; type: toxicity, organism-based; details: salmonella enterica subsp. enterica serovar typhimurium
[31] = Cytotoxicity against mouse NIH/3T3 cells after 24 hrs by XTT assay; type: cell-based; details: NIH3T3, 24 h
A549 = assay: Cytotoxicity against human A549 cells after 24 hrs by XTT assay; type: functional, cell-based; details: A549, 24 h

Structure (SMILES) | MIC (Aspergillus parasiticus) [µg/mL] | Activity (Salmonella typhimurium [1]) | Activity (Salmonella typhimurium [2]) | Activity (Salmonella typhimurium [3]) | Activity (Salmonella typhimurium [4]) | Activity (Salmonella typhimurium [5]) | Activity (Salmonella typhimurium [6]) | fold induction at 2 h, 1.25 mg/ml [7] | fold induction at 2 h, 0.156 mg/ml [8] | fold induction at 2 h, 0.3125 mg/ml [9] | fold induction at 2 h, 0.625 mg/ml [10] | fold induction at 2 h, 1.25 mg/ml [11] | fold change (FC) (Salmonella typhimurium [12]) | fold change (FC) (Salmonella typhimurium [13]) | fold change (FC) (Salmonella typhimurium [14]) | fold change (FC) (Salmonella typhimurium [15]) | fold change (FC) (Salmonella typhimurium [16]) | fold change (FC) (Salmonella typhimurium [17]) | fold change (FC) (Salmonella typhimurium [18]) | fold change (FC) (Salmonella typhimurium [19]) | further results
Fc1cccc(/C=N/NC(=S)Nc2cccc3ccccc23)c1F | 250 (≈ 732 µM) | 0.274 | 0.228 | 0.231 | 0.24 | 0.131 | 0.146 | 1.42 | 6 | 1.79 | 1.75 | 1.63 | 0.94 | 0.84 | 0.84 | 0.84 | 0.47 | 0.56 | 0.17 | 0 | fold change (FC) (Salmonella typhimurium [20]): 0; fold change (FC) (Salmonella typhimurium [21]): 0.34; MIC (Candida albicans): 250 µg/mL (≈ 732 µM); MIC (Candida tropicalis): 250 µg/mL (≈ 732 µM); MIC (Aspergillus niger): 250 µg/mL (≈ 732 µM); Activity (Salmonella typhimurium [22]): 0.14; Activity (Salmonella typhimurium [23]): 0.115; Activity (Salmonella typhimurium [24]): 0.137; fold change (FC) (Salmonella typhimurium [25]): 0; fold change (FC) (Salmonella typhimurium [26]): 0.68; fold change (FC) (Salmonella typhimurium [27]): 0.58; fold change (FC) (Salmonella typhimurium [28]): 0.36; fold change (FC) (Salmonella typhimurium [29]): 0.42; fold change (FC) (Salmonella typhimurium [30]): 0.18; IC50 [31]: > 500 µg/mL; IC50 (A549): 500 µg/mL (≈ 1460 µM)
Fc1ccc(F)c(/C=N/NC(=S)Nc2cccc3ccccc23)c1 | 250 (≈ 732 µM) | 0.235 | 0.121 | 0.236 | 0.228 | 0.115 | 0.131 | 2.81 | 1.79 | 1.3 | 6 | 1.79 | 0.65 | 1.12 | 0.28 | 0.65 | 0.56 | 0.65 | 0.51 | 0 | fold change (FC) (Salmonella typhimurium [20]): 0; fold change (FC) (Salmonella typhimurium [21]): 0.34; MIC (Candida albicans): 250 µg/mL (≈ 732 µM); MIC (Candida tropicalis): 250 µg/mL (≈ 732 µM); MIC (Aspergillus niger): 250 µg/mL (≈ 732 µM); Activity (Salmonella typhimurium [22]): 0.142; Activity (Salmonella typhimurium [23]): 0.168; Activity (Salmonella typhimurium [24]): 0.14; fold change (FC) (Salmonella typhimurium [25]): 0; fold change (FC) (Salmonella typhimurium [26]): 0.44; fold change (FC) (Salmonella typhimurium [27]): 0.48; fold change (FC) (Salmonella typhimurium [28]): 0; fold change (FC) (Salmonella typhimurium [29]): 0.18; fold change (FC) (Salmonella typhimurium [30]): 0.48; IC50 [31]: > 500 µg/mL; IC50 (A549): 500 µg/mL (≈ 1460 µM)

— ChEMBL document CHEMBL3758081, “Synthesis and biological evaluation of new naphthalene substituted thiosemicarbazone derivatives as potent antifungal and anticancer agents” (Eur J Med Chem, 2016)
